US4025556A, “Quaternary ammonium-hydroxyaryl compounds” (Ciba-Geigy AG, priority 1967, dated 1977)

What was measured:
Assay type in all cases: cell-based
Escherichia coli = assay: Minimal inhibitory concentration (MIC), gradient plate test, bacteriostasis; conditions: brain heart infusion agar, 24 hours at 37° C
Source text: (§1) Measuring the minimal inhibitory concentration (MIC) towards bacteria and fungi in the gradient plate test
(§2) The compounds of the formula (1) in suitable formulations (for example as solutions in dimethylsulphoxide) of certain concentrations are mixed with warm brain heart infusion agar (bacteria) and Mycophil-Agar (fungi). The liquid mixtures are poured over a solidified, wedge-shaped basic agar layer and likewise allowed to solidify.
(§3) The test organisms are then applied by means of a Pasteur pipette in lines at right angles to the gradient. After an incubation period of 24 hours at 37° C. (bacteria) and 72 hours at 30° C. (fungi) the length of the germs grown on the inoculation line is measured and expressed in parts per million of active substance.

Staphylococcus aureus [1] = assay: as above; conditions: brain heart infusion agar, 24 hours at 37° C
Source text: as §1, §2, §3

Aspergillus niger [2] = assay: Minimal inhibitory concentration (MIC), gradient plate test, fungistasis; conditions: Mycophil-Agar, 72 hours at 30° C
Source text: as §1, §2, §3

[3] = test system: Trichophyton mentagrophytes; assay: as above; conditions: Mycophil-Agar, 72 hours at 30° C
Source text: as §1, §2, §3

Staphylococcus aureus [4] = assay: Activity of impregnated fabrics against bacteria (agar plate, inhibitory zone and growth)
Experimental: (§4) Samples of C. 100 g each of cotton creton are impregnated on a padder with a 1% solution of one of the compounds of the formula (1) in isopropanol at 20° C and then squeezed to a weight increase of 100%.
(§5) Samples of 100 g each of wool cheviot were treated in an identical manner.
(§6) After having been dried at 30° to 40° C. the fabrics contain 1% of active substance referred to their own weight.
To test the activity against bacteria round blanks of 10 mm diameter of the impregnated fabrics, one half of which untreated and the other after having been watered for 24 hours at 29° C., are placed on brain infusion agar plates previously inoculated with Staphylococcus aureus. The plates are then incubated for 24 hours at 37° C.
(§7) The evaluation extends, on one hand, to the inhibitory zones (IZ in mm) around the blanks and, on the other hand, on the growth (G in %) detected under a microscope underneath and/or on the fabric: […]

Aspergillus niger [5] = assay: Fungicidal activity of impregnated paper (agar plate, inhibitory zone and growth); conditions: paper with 1% of active substance, 72 hours at 30° C
Experimental: (§8) Crude paper, which consists of 90% of bleached sulphite cellulose and 10% of birch pulp, is impregnated in a sizing press with a 2.5% solution of the compound of the formula (11) in methanol+water 2:1 to a weight increase of 40%.
(§9) The dried paper contains 1% of active substance referred to its original weight.
For testing its fungicidal activity round blanks of 25 mm diameter are placed on Mycophil-Agar plates and inoculated with Aspergillus niger, and the plates are incubated for 72 hours at 30° C.
(§10) The evaluation extends, on one hand, to the inhibitory zone (IZ in mm) around the paper blanks and, on the other hand, to the microscopically discernible growth (G in %) underneath and/or on the blanks: […]

Aspergillus niger [6] = assay: Activity of impregnated fabrics against fungi (agar plate, inhibitory zone and growth)
Experimental: as §4, §5, §6
To test the activity against fungi round blanks of 25 mm diameter are placed on beerwort agar plates and then inoculated with Aspergillus niger, and the plates are then incubated for 72 hours at 30° C.
as §7

Staphylococcus aureus [7] = assay: Antibacterial properties of impregnated paper (agar plate, inhibitory zone and growth); conditions: paper with 1% of active substance, 24 hours at 37° C
Source text: as §8, §9
To test its antibacterial properties round blanks of 10 mm diameter of the impregnated paper are placed on brain heart infusion agar plates previously inoculated with Staphylococcus aureus, and the plates are then incubated for 24 hours at 37° C.
as §10

Staphylococcus aureus [8] = assay: Minimal inhibitory concentration (MIC), dilution test, bacteriostasis; conditions: brain heart infusion broth, 48 hours at 37° C
Experimental: (§11) Measuring the minimal inhibitory concentration (MIC) against bacteria and fungi in the dilution test
(§12) The minimal inhibitory concentration (MIC) is measured by a test derived from standardized methods which makes available an approximation to absolute minimal inhibitory values of an active substance.
(§13) A solution of 0.4% and 0.12% strength each in dimethylsulphoxide is prepared with the active substances. 0.25 ml of each of these solutions is added to 9.75 ml of sterile brain heart infusion broth (bacteria) and beerwort solution (fungi) respectively. By continual dilution to 10 times the volume two series are obtained which are combined and thereby converted into the following continuous dilution series:
(§14) 100, 30, 10, 3, 1 . . . part per million of active substance.
(§15) The solutions are inoculated with the bacterium Staphylococcus aureus and with fungi Aspergillus niger and Rhizopus nigricans respectively. Then incubation is performed for 48 hours at 37° C. (bacteriostasis) with Staphylococcue aureus and for 72 hours at 30° C. (fungistasis)with the fungi.

Aspergillus niger [9] = assay: Minimal inhibitory concentration (MIC), dilution test, fungistasis; conditions: beerwort solution, 72 hours at 30° C
Experimental: as §11, §12, §13, §14, §15

Rhizopus nigricans = assay: as above; conditions: beerwort solution, 72 hours at 30° C
Experimental: as §11, §12, §13, §14, §15

[10] = cotton with 1% of active substance, untreated
[11] = wool with 1% of active substance, untreated

| Molecule | Minimal inhibitory concentration, bacteriostasis, Escherichia coli (Escherichia coli) [ppm] | Minimal inhibitory concentration, bacteriostasis, Staphylococcus aureus (Staphylococcus aureus [1]) [ppm] | Minimal inhibitory concentration, fungistasis, Aspergillus niger (Aspergillus niger [2]) [ppm] | Minimal inhibitory concentration, fungistasis, Trichophyton mentagrophytes [3] [ppm] | inhibitory zone (IZ) (Staphylococcus aureus [4]; [10]) [mm] | inhibitory zone (IZ) (Staphylococcus aureus [4]; cotton with 1% of active substance, watered 24 hours at 29° C) [mm] | inhibitory zone (IZ) (Staphylococcus aureus [4]; [11]) [mm] | inhibitory zone (IZ) (Staphylococcus aureus [4]; wool with 1% of active substance, watered 24 hours at 29° C) [mm] | inhibitory zone (IZ) (Aspergillus niger [5]) [mm] | inhibitory zone (IZ) (Aspergillus niger [6]; [10]) [mm] | inhibitory zone (IZ) (Aspergillus niger [6]; cotton with 1% of active substance, watered) [mm] | inhibitory zone (IZ) (Aspergillus niger [6]; [11]) [mm] | inhibitory zone (IZ) (Aspergillus niger [6]; wool with 1% of active substance, watered) [mm] | inhibitory zone (IZ) (Staphylococcus aureus [7]) [mm] | Inhibitory values in ppm in bacteriostasis, Staphylococcus aureus (MIC) (Staphylococcus aureus [8]) [ppm] | Inhibitory values in ppm in fungistasis, Aspergillus niger (MIC) (Aspergillus niger [9]) [ppm] | Inhibitory values in ppm in fungistasis, Rhizopus nigricans (MIC) (Rhizopus nigricans) [ppm] |
| --- | --- | --- | --- | --- | --- | --- | --- | --- | --- | --- | --- | --- | --- | --- | --- | --- | --- |
| CCCCCCCCCCCC[N+](CCO)(CCO)Cc1ccccc1.[O-]c1cccc2cccnc12 [L] | 20 | 3 | 6 | 6 |  |  |  |  |  |  |  |  |  |  |  |  |  |
| benzyl-bis-(2-hydroxyethyl)-dodecyl ammonium pentachlorophenolate |  |  |  |  | 6 | 5 | 6 | 3 | 1 | 7 | 4 | 0 | 0 | 2.5 | 10 | 10 | 10 |
